≈ marks a conversion by molar mass, not a printed value. Where two headings read alike, the source gives them in different places. Where a SMILES comes first, the peptide text is derived from it. Where no end group is shown, it is not given here.

The test system of test [1] is Staphylococcus epidermidis DSM 20044. Format: cell-based. How it is done: (§1) For these studies we used reference strains Escherichia coli ATCC25922, Bacillus subtilis 168c, Staphylococcus epidermidis DSM 20044 (DSMZ Gmbh, Brauschweig, Germany) and Enterococcus hirae DSM 3320 (DSMZ Gmbh, Germany). Bacterial cells were inoculated into Mueller–Hinton Broth II (MHB II; Sigma-Aldrich, Steinheim, Germany) and grown to the mid-logarithmic phase, washed in sodium buffered saline (PBS, 137 mM NaCl, 2.7 mM KCl, 10 mM Na2HPO4, and 2 mM KH2PO4, pH 7.4). The culture was adjusted to ~1 × 10^6 CFU/mL and dispensed into 96-well microtiter plates. Peptides were tested in two-fold serial dilutions across a concentration range of 0.4–100 µM, each concentration assayed in duplicate. Growth control wells (bacteria + medium, no peptide) and sterility control wells (medium only) were included. In parallel, the inoculum density and purity were verified by plating serial dilutions of the bacterial culture on MHB agar. After incubation at 37 °C for 20 h under static conditions, bacterial growth was quantified by measuring optical density at 620 nm (OD 620). […] The experiment was repeated in three independent biological replicates.

Test [2] has as its system S. epidermidis. Description: Membrane permeability assay (propidium iodide uptake), S. epidermidis. To be noted: 1 × 10^7 cells/mL in PBS; PI 2.5 µg/mL; 37 °C, 120 min. In kind it is cell-based, Staphylococcus epidermidis. How it is done: (§2) Bacterial membrane permeabilization was evaluated using propidium iodide (PI) uptake. PI is a membrane-impermeable dye: it cannot cross intact bacterial cytoplasmic membranes, but when the membrane integrity is compromised (for example, via peptide-mediated permeabilization), PI enters the cell, intercalates into nucleic acids (DNA and RNA) and fluorescence increases markedly. B. subtilis, E. hirae and S. epidermidis cells were grown to mid-logarithmic phase, harvested by centrifugation, washed once with PBS and diluted to a concentration of 1 × 10^7 cells/mL using PBS instead of growth medium. […] Fluorescence (excitation 535 nm, emission 617 nm) was monitored every 2 min for 120 min at 37 °C using a microplate reader (GloMax®, Promega, Madison, WI, USA). The time-course fluorescence curves were recorded for each peptide concentration (in duplicate for each time point, and the entire experiment was repeated three independent times). From each time-course fluorescence curve (for a given peptide concentration), a constant time-window (for example minutes 10 to 20) was selected where the fluorescence signal was stable or in the linear uptake phase. The fluorescence values within that window were averaged to provide a representative fluorescence uptake value for that peptide concentration. […]

In test [3] the test system is E. hirae. In words: Membrane permeability assay (propidium iodide uptake), E. hirae. In kind it is cell-based, Enterococcus hirae. Particulars: 1 × 10^7 cells/mL in PBS; PI 2.5 µg/mL; 37 °C, 120 min. Here is the method:
as §2

The test system of test [4] is B. subtilis. Description: Membrane permeability assay (propidium iodide uptake), B. subtilis. To be noted: 1 × 10^7 cells/mL in PBS; PI 2.5 µg/mL; up to 400 µM; 37 °C, 120 min; fluorescence 535/617 nm; three independent experiments in duplicates. In kind it is cell-based, Bacillus subtilis. How it is done: as §2
Test [5] concerns Gram-positive and Gram-negative bacteria. Particulars: cited from earlier work. From the text:
Even though the discovery of antibiotics revolutionized medicine, their inappropriate use has enabled the spread of resistant bacteria and rendered commercially available antibiotics ineffective. Antibiotic resistance (AR) is one of the greatest threats, and the development of new molecules with antibacterial activity has become a global priority. Antimicrobial peptides (AMPs), naturally occurring defense molecules found across many species, represent a powerful alternative antibacterial strategy against antibiotic-resistant pathogens. As part of the innate immune response, ...

The test system of test [6] is Escherichia coli ATCC25922. In kind it is cell-based. To be noted: E. coli ATCC25922; cation-adjusted MHB II; ~1 × 10^6 CFU/mL; two-fold dilutions; 37 °C, 20 h; OD 620; three independent replicates, duplicates. How it is done: as §1

As to “RRIRRRFGYRL [EB3-C, Arg-Arg-Ile-Arg-Arg-Arg-Phe-Gly-Tyr-Arg-Leu]”, the “MIC90, Staphylococcus epidermidis” value in test [1] (DSM 20044, 20 h) is 25 to 50 µg/mL.
For `CC[C@H](C)[C@H](NC(=O)[C@H](CS)NC(=O)[C@@H](N)CCCNC(=N)N)C(=O)N[C@@H](CCCNC(=N)N)C(=O)N[C@@H](CCCNC(=N)N)C(=O)N[C@@H](CS)C(=O)N[C@@H](Cc1ccccc1)C(=O)NCC(=O)N[C@@H](Cc1ccc(O)cc1)C(=O)N[C@@H](CS)C(=O)N[C@@H](CC(C)C)C(=O)O` [EB3, Arg-Cys-Ile-Arg-Arg-Cys-Phe-Gly-Tyr-Cys-Leu] (H-RCIRRCFGYCL-OH), the “MIC against S. epidermidis” value in test [1] (DSM 20044, 20 h) was found to be 25 µM (≈ 34.7 µg/mL).
With “LL-37 (LLGDFFRKSKEKIGKEFKRIVQRIKDFLRNLVPRTES; Antibacterial peptide LL-37; UniProt P49913 134-170, looked up)”, the “membrane permeabilization of S. epidermidis (PI uptake), in words” value in test [2] is reported as “unable to permeabilize”. For the same compound, the “membrane permeabilization of E. hirae (PI uptake), in words” value in test [3] is recorded as “unable to permeabilize”. Further, the “membrane permeabilization of B. subtilis (PI uptake), in words” value in test [4] is reported as “extensive membrane permeabilization”.
Consider “GQCQRKCLGHCSKKCPKHPQCRKRCIRRCFGYCL [Equinin B, 34-residue marine antimicrobial peptide isolated from the tentacle of Actinia equina]”, for which, in test [5], the bactericidal concentrations is recorded as 0.25 mg/mL and the “minimum inhibitory concentrations (MICs)” value is 1000 µg/mL.
With “RRIRRRGYRL-OH [EB3a-C, Arg-Arg-Ile-Arg-Arg-Arg-Gly-Tyr-Arg-Leu]”, the “MIC90, Escherichia coli” value in test [6] is more than 100 µg/mL. Further, the “antimicrobial activity against S. epidermidis, in words” value in test [1] (MIC assay, up to 100 µM) is recorded as “abolished activity”. Also, the “MIC90, Staphylococcus epidermidis” value in test [1] (S. epidermidis DSM 20044, cation-adjusted MHB II, ~1 × 10^6 CFU/mL, two-fold dilutions, 37 °C, 20 h, OD 620, three independent replicates, duplicates) was more than 100 µg/mL.

(Values after publication PMC12842892, “Truncated Equinin B Variants Reveal the Sequence Determinants of Antimicrobial Selectivity” (Marine Drugs, 2026).)
